Test results reported in patent publication US10010607B2, “Method for preparing viral particles with cyclic dinucleotide and use of said particles for inducing immune response” (priority 2014, dated 2018).

Columns and labels:
[1] = system: HEK293 cells; assay type: cell-based, human; details: for IFN induction by HIV-1-GFP from inhibitor-treated cGAS-reconstituted producer cells: 20 μM GW4869 or 60 μM Ac-DEVD-CHO during virus preparation; for IFN response in target cells in the presence of inhibitor: HEK293 cells infected with HIV-1-GFP from cGAS expressing cells, inhibitor 5 μM 1 hour prior to infection
[2] = system: IFNβ promoter reporter; assay type: cell-based, human; details: HEK293 cells transfected with 2 μg 2′-3′-cGAMP, 24 hours

Molecule | IFN induction by HIV-1-GFP from inhibitor-treated cGAS-reconstituted producer cells [1] | IFN response in target cells in the presence of inhibitor [1] | other results
O=C(/C=C/c1ccc(/C=C/C(=O)Nc2ccc(C3=NCCN3)cc2)cc1)Nc1ccc(C2=NCCN2)cc1 [GW4869] | did not diminish IFN induction | – | –
Nc1nc2c(ncn2[C@@H]2O[C@@H]3COP(=O)(O)O[C@H]4[C@@H](O)[C@H](n5cnc6c(N)ncnc65)O[C@@H]4COP(=O)(O)O[C@@H]2[C@@H]3O)c(=O)[nH]1 [cGAMP, 2′-3′-cyclic GMP-AMP] | – | – | IFN induction in response to cGAMP (IFNβ promoter reporter) [2]: induce IFN
Cc1ccnc2c1NC(=O)c1cccnc1N2C1CC1 [nevirapine] | – | independent | –
Cc1nnc(C(=O)NC(C)(C)c2nc(C(=O)NCc3ccc(F)cc3)c(O)c(=O)n2C)o1 [raltegravir] | – | independent | –
Ac-DEVD-CHO | did not diminish IFN induction | – | –
